Results taken from patent US11999727B2 (Tango Therapeutics, Inc., priority 2020, dated 2024).
Where two headings read alike, the source gives them in different places.

Legend:
[1] = system: HAP1 MTAP-intact cell line; experiment: SDMA in-cell western assay, HAP1 MTAP-intact; type: cell-based; conditions: Homo sapiens
Method in brief: (§1)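 IC50 values come from SDMA signal quantified by in-cell western in two HAP1 lines, one with native MTAP levels and one lacking MTAP.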

PRMT5 [2] = molecular target: T1, PRMT5 (Homo sapiens, UniProt O14744); experiment: PRMT5 biochemical IC50 assay with MTA as cofactor
T1 construct: purchased Viva (custom protein)

PRMT5 [3] = molecular target: T1, PRMT5; experiment: PRMT5 biochemical IC50 assay with SAM as cofactor
PRMT5 [4] = molecular target: T1, PRMT5; experiment: PRMT5 biochemical IC50 assay with no cofactor
Description: Table 1 indicates IC50 values (μM) against PRMT5 for exemplary compounds in the presence of SAM as cofactor, with no cofactor, and with MTA as cofactor, respectively (columns 4-6). […] Ki values can be calculated from the IC50 values as described in the Examples section. As detailed in the Examples section, for the assay performed in the presence of SAM, IC50=Ki×1.5 (Ki=IC50/1.5).

[5] = system: HAP1 MTAP-deleted cell line; experiment: SDMA in-cell western assay, HAP1 MTAP-deleted; type: cell-based; conditions: for IC50: Homo sapiens; for MTAP intact/deleted ratio: SDMA in-cell western
Method in brief: as §1

[6] = system: HAP1 MTAP-deleted cell line; experiment: Viability assay, MTAP-deleted cell line; type: cell-based; conditions: Homo sapiens
Description: Table 1 additionally indicates IC50 values in a viability assay for the MTAP-deleted cell line (column 10), indicating the effect of treatment with compound on cell survival.

[7] = HAP1, SDMA in-cell western, HAP1 MTAP-intact, read-out: MTAP HAP1 intact IC50
[8] = PRMT5, MTA as cofactor, read-out: MTA IC50
[9] = PRMT5, SAM as cofactor, read-out: SAM IC50
[10] = PRMT5, no cofactor, read-out: No Cofactor/rel IC50
[11] = HAP1, SDMA in-cell western, HAP1 MTAP-deleted, read-out: HAP1 MTAP deleted IC50
[12] = IC50 ratio HAP1 MTAP-intact / HAP1 MTAP-deleted
[13] = HAP1, viability assay, HAP1 MTAP-deleted, read-out: HAP1 MTAP deleted viability
[14] = HAP1, viability assay, MTAP-deleted cell line, read-out: HAP1 MTAP deleted viability
[15] = PRMT5, no cofactor, read-out: No Cofactor/ rel IC50
[16] = HAP1, SDMA in-cell western, HAP1 MTAP-deleted, read-out: HAP 1 MTAP deleted IC50
[17] = HAP1, viability, HAP1 MTAP-deleted cell line, read-out: HAP1 MTAP deleted viability
[18] = IC50 ratio HAP1 MTAP-intact vs HAP1 MTAP-deleted

T1 sequence (O14744 whole entry): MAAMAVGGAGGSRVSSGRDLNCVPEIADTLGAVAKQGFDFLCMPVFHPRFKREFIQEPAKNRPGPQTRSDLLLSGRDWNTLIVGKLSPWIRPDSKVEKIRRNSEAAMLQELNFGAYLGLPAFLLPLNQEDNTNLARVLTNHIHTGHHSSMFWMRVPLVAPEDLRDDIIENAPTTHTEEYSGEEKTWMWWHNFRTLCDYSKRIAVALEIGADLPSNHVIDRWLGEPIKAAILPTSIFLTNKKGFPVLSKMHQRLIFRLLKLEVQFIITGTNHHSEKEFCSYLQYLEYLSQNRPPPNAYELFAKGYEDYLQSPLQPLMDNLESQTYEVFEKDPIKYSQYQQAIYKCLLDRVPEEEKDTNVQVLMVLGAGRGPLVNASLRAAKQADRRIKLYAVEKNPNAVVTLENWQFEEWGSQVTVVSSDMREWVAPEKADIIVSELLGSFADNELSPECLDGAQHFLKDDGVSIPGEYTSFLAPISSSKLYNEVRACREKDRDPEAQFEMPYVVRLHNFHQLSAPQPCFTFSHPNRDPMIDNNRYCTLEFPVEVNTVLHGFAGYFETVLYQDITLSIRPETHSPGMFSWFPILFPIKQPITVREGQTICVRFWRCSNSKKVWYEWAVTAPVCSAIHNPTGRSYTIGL
T1 sequence (Q9BQA1 whole entry partner): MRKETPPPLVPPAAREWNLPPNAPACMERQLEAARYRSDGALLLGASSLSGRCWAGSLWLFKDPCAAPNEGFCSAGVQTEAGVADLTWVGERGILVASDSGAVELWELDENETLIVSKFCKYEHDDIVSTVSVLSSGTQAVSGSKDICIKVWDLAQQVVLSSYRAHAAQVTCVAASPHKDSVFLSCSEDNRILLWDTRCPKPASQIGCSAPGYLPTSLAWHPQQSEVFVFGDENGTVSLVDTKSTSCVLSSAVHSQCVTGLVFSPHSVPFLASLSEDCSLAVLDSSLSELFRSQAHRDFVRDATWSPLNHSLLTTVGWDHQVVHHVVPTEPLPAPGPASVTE

| IC50 [1, 7] [nM] | IC50 (PRMT5 [2]; [8]) [nM] | IC50 (PRMT5 [3]; [9]) [nM] | IC50 (PRMT5 [4]; [10]) [nM] | IC50 [5, 11] [nM] | IC50 (PRMT5 [4]; [15]) [nM] | IC50 [5, 16] [nM] | Compound | MTAP intact/deleted ratio [5, 12] | IC50 [6, 13] [nM] | IC50 [6, 14] [nM] | IC50 [6, 17] [nM] | IC50 ([1]; HAP1, read-out: MTAP HAP1 intact IC50) [nM] | IC50 (PRMT5 [2]; MTA IC50, PRMT5, MTA as cofactor) [nM] | IC50 (PRMT5 [3]; SAM IC50, PRMT5, SAM as cofactor) [nM] | IC50 (PRMT5 [4]; No Cofactor/rel IC50, PRMT5, no cofactor) [nM] | IC50 ([5]; HAP1, read-out: HAP1 MTAP deleted IC50) [nM] | MTAP intact/deleted ratio [5, 18] | IC50 ([6]; HAP1, read-out: HAP1 MTAP deleted viability) [nM] | IC50 ([6]; HAP1, viability IC50, MTAP-deleted cell line, read-out: HAP1 MTAP deleted viability) [nM] |
| --- | --- | --- | --- | --- | --- | --- | --- | --- | --- | --- | --- | --- | --- | --- | --- | --- | --- | --- | --- |
| > 1000 | > 500 | > 500 | > 500 | > 1000 |  |  | CCc1cc(NC(=O)C(=O)N2C[C@H](C)C(F)(F)C[C@H]2c2ccc(F)c(F)c2)cnc1N (single isomer, unassigned) [Compound 728] | C (an IC50 ratio of less than 3 fold) | > 10000 |  |  |  |  |  |  |  |  |  |  |
| > 1000 | < 50 | 50 to 500 | 50 to 500 | 100 to 1000 |  |  | COc1ccc([C@@H]2CC[C@@H](C)CN2C(=O)C(=O)Nc2cncc(C(N)=O)c2)cc1F (racemic) [Compound 208, rac-5-{2-[(2R,5S)-2-(3-Fluoro-4-methoxyphenyl)-5-methylpiperidin-1-yl]-2-oxoacetamido}pyridine-3-carboxamide] | A (an IC50 ratio greater than or equal to 10 fold) |  | 1000 to 10000 |  |  |  |  |  |  |  |  |  |
| < 100 | < 50 | < 50 |  |  | < 50 | < 100 | Cc1cc(NC(=O)C(=O)N2C[C@@H](C)CC[C@@H]2c2ccc3sc(CCN4CCCC4)nc3c2)cnc1N [Compound 1296, N-(6-amino-5-methylpyridin-3-yl)-2-((2R,5S)-5-methyl-2-(2-(2-(pyrrolidin-1-yl)ethyl)benzo[d]thiazol-5-yl)piperidin-1-yl)-2-oxoacetamide] | A (an IC50 ratio greater than or equal to 10 fold) |  |  | < 1000 |  |  |  |  |  |  |  |  |
| 100 to 1000 | < 50 | 50 to 500 | < 50 |  |  | < 100 | Cc1cc(NC(=O)C(=O)N2C[C@@H](C)CC[C@@H]2c2cn[nH]c2)cnc1N (single isomer, unassigned) [Compound 941] | B (an IC50 ratio greater than or equal to 3 fold but lower than 10 fold) |  | 1000 to 10000 |  |  |  |  |  |  |  |  |  |
| 100 to 1000 | < 50 | 50 to 500 | < 50 | < 100 |  |  | CCc1cc(NC(=O)C(=O)N2C[C@@H](C)CC[C@@H]2c2ccc3[nH]cnc3c2)cnc1N (single isomer, unassigned) [Compound 748] | A (an IC50 ratio greater than or equal to 10 fold) | < 1000 |  |  |  |  |  |  |  |  |  |  |
| > 1000 | > 500 | > 500 | > 500 | > 1000 |  |  | C[C@H]1CC[C@H](c2ccc3c(c2)C[C@@H](C)O3)N(C(=O)C(=O)Nc2cncc(C(N)=O)c2)C1 (single isomer, unassigned) [Compound 377] | C (an IC50 ratio of less than 3 fold) |  | > 10000 |  |  |  |  |  |  |  |  |  |
| 100 to 1000 | < 50 | 50 to 500 | < 50 | < 100 |  |  | Cc1cc(NC(=O)C(=O)N2C[C@H](C)CC[C@H]2c2ccc(N)nc2)cnc1N (single isomer, unassigned) [Compound 848] | A (an IC50 ratio greater than or equal to 10 fold) | < 1000 |  |  |  |  |  |  |  |  |  |  |
|  |  |  |  |  |  |  | CCc1cc(NC(=O)C(=O)N2C[C@@H](C)CC[C@@H]2c2ccc3sc(C4(C)CCN(C)CC4)nc3c2)cnc1N [Compound 1171, N-(6-amino-5-ethylpyridin-3-yl)-2-((2R,5S)-2-(2-(1,4-dimethylpiperidin-4-yl)benzo[d]thiazol-5-yl)-5-methylpiperidin-1-yl)-2-oxoacetamide] |  |  |  |  | < 100 | < 50 | < 50 | < 50 | < 100 | A (an IC50 ratio greater than or equal to 10 fold) | < 1000 |  |
| > 1000 | > 500 | > 500 | > 500 | > 1000 |  |  | CCc1cc(NC(=O)C(=O)N2C[C@H](C)CC[C@H]2c2ccc3sc(CCN(C)C)nc3c2)cnc1N (single isomer, unassigned) [Compound 1133] |  |  | 1000 to 10000 |  |  |  |  |  |  |  |  |  |
| 100 to 1000 | < 50 | 50 to 500 |  |  | < 50 | < 100 | Cc1nc2cc([C@H]3CC[C@H](C)CN3C(=O)C(=O)Nc3cnc(N)c(C4CC4)c3)ccc2s1 (single isomer, unassigned) [Compound 1313] | A (an IC50 ratio greater than or equal to 10 fold) |  |  | < 1000 |  |  |  |  |  |  |  |  |
| 100 to 1000 | < 50 | 50 to 500 |  |  | < 50 | < 100 | CCc1cc(NC(=O)C(=O)N2C[C@@H](C)CC[C@@H]2c2ccc3sc([C@H]4COCCN4C)nc3c2)cnc1N [Compound 1245, N-(6-amino-5-ethylpyridin-3-yl)-2-((2R,5S)-5-methyl-2-(2-(4-methylmorpholin-3-yl)benzo[d]thiazol-5-yl)piperidin-1-yl)-2-oxoacetamide] | A (an IC50 ratio greater than or equal to 10 fold) |  |  | < 1000 |  |  |  |  |  |  |  |  |
| > 1000 | < 50 | 50 to 500 |  |  | < 50 | < 100 | COc1ncc(NC(=O)C(=O)N2C[C@@H](C)CC[C@@H]2c2ccc(CCN(C)C)c(Cl)c2)cc1C(N)=O [Compound 1341, 5-(2-((2R,5S)-2-(3-chloro-4-(2-(dimethylamino)ethyl)phenyl)-5-methylpiperidin-1-yl)-2-oxoacetamido)-2-methoxynicotinamide] |  |  |  | < 1000 |  |  |  |  |  |  |  |  |
| > 1000 | 50 to 500 | 50 to 500 | 50 to 500 |  |  | 100 to 1000 | C[C@@H]1CN(C(=O)C(=O)Nc2cncc(C(N)=O)c2)C[C@H]2CCCC[C@@H]21 (racemic) [Compound 543, 5-[[2-[(4S,4aR,8aS)-4-Methyl-3,4,4a,5,6,7,8,8a-octahydro-1H-isoquinolin-2-yl]-2-oxo-acetyl]amino]pyridine-3-carboxamide] | A (an IC50 ratio greater than or equal to 10 fold) |  |  |  |  |  |  |  |  |  |  | 1000 to 10000 |
| > 1000 | > 500 | > 500 | > 500 |  |  | > 1000 | CCc1cc(NC(=O)C(=O)N2C[C@@H](C)CC[C@@H]2c2cc3[nH]ncc3s2)cnc1N (single isomer, unassigned) [Compound 967] | B (an IC50 ratio greater than or equal to 3 fold but lower than 10 fold) |  | > 10000 |  |  |  |  |  |  |  |  |  |
| > 1000 | 50 to 500 | 50 to 500 | > 500 | > 1000 |  |  | NC(=O)c1cncc(NC(=O)C(=O)N2C[C@@H]3CC[C@@H](C3)[C@@H]2c2ccccc2)c1 (single isomer, unassigned) [Compound 205] | B (an IC50 ratio greater than or equal to 3 fold but lower than 10 fold) |  | > 10000 |  |  |  |  |  |  |  |  |  |
| > 1000 | < 50 | 50 to 500 |  |  | 50 to 500 | 100 to 1000 | NC(=O)c1cncc(NC(=O)C(=O)N2CCCCC2c2cccs2)c1 (stereo not shown) [Compound 120, 5-[[2-Oxo-2-[2-(2-thienyl)-1-piperidyl]acetyl]amino]pyridine-3-carboxamide] | A (an IC50 ratio greater than or equal to 10 fold) |  | > 10000 |  |  |  |  |  |  |  |  |  |
| 100 to 1000 | < 50 | 50 to 500 | < 50 | < 100 |  |  | CCc1cc(NC(=O)C(=O)N2C[C@@H](C)CC[C@@H]2c2ccc(NC3CCN(C)CC3)cc2)cnc1N [Compound 1112, N-(6-Amino-5-ethyl-3-pyridyl)-2-[(2R,5S)-5-methyl-2-[4-[(1-methyl-4-piperidyl)amino]phenyl]-1-piperidyl]-2-oxo-acetamide] |  |  | < 1000 |  |  |  |  |  |  | A (an IC50 ratio greater than or equal to 10 fold) |  |  |
| < 100 | < 50 | < 50 | < 50 | < 100 |  |  | C[C@@H]1CC[C@@H](c2ccc3sc(CCN(C)C)nc3c2)N(C(=O)C(=O)Nc2cnc(N)c(C3CC3)c2)C1 (single isomer, unassigned) [Compound 1218] |  |  | < 1000 |  |  |  |  |  |  | A (an IC50 ratio greater than or equal to 10 fold) |  |  |
